The subject of one data set is Mus musculus. In words: AUC in mouse assessed as GW-7604 at 100 mg/kg, po. It is filed as ADME, organism-based. To be noted: in vivo.
Data set [1] is described as follows: AUC in mouse at 100 mg/kg, po. It is filed as ADME, organism-based. Particulars: in vivo.
The nature of data set [2]: Half life in phosphate buffer at pH 7.4 at 37 degC. It is filed as physicochemical.
Data set [3] is described as follows: Drug uptake in CD-IGS rat at 1 mg/kg, po administered for 3 days measured at 24 hrs post last dose. Particulars: in vivo, read-out: Drug uptake. It is filed as ADME, organism-based.
Data set [4] is described as follows: AUC in mouse at 10 mg/kg, po. It is filed as ADME, organism-based. Particulars: in vivo.
Data set [5] in a line: Drug uptake in CD-IGS rat at 1 mg/kg, po administered for 3 days measured at 6 hrs post last dose. It is filed as ADME, organism-based. Particulars: in vivo, read-out: Drug uptake.
Data set [6] can be described thus: Drug level in microsomes (unknown origin) treated with (E)-3-(4-((E)-2-(2-chloro-4-fluorophenyl)-1-(1H-indazol-5-yl)but-1-enyl)phenyl)acrylic acid. It is filed as ADME, Microsome.
Data set [7] in a line: AUC in 17-beta estradiol pellets supplemented nu/nu mouse xenografted with tamoxifen-resistant human MCF7 cells at 100 mg/kg/day, po administered for 4 weeks measured on day 28. It is filed as ADME, organism-based. To be noted: in vivo. On the technique in general: In xenograft studies the graft and the host belong to different species.
Data set [8] can be described thus: Drug metabolism in microsomes (unknown origin) assessed as formation of (2S,3S,4R,5R,6S)-6-((E)-3-(4-((E)-2-(2-chloro-4-fluorophenyl)-1-(1H-indazol-5-yl)but-1-enyl)phenyl)acryloyloxy)-3,4,5-trihydroxytetrahydro-2H-pyran-2-carboxylic acid. It is filed as ADME, Microsome.
Data set [9] is described as follows: Half life in dog at 3 mg/kg, iv. It is filed as ADME, organism-based, Canis lupus familiaris. To be noted: in vivo.
A short description of data set [10]: Volume of distribution at steady state in dog at 3 mg/kg, iv and 10 mg/kg, po. Particulars: in vivo, read-out: Vdss. It is filed as ADME, organism-based, Canis lupus familiaris.
The nature of data set [11]: Oral bioavailability in rat at 10 mg/kg. It is filed as ADME, organism-based. Particulars: in vivo.
Data set [12] can be described thus: Half life in cynomolgus monkey at 3 mg/kg, iv. Particulars: in vivo. It is filed as ADME, organism-based, Macaca fascicularis.
The nature of data set [13]: Oral bioavailability in cynomolgus monkey at 10 mg/kg. It is filed as ADME, organism-based, Macaca fascicularis. To be noted: in vivo.
The nature of data set [14]: AUC in cynomolgus monkey at 10 mg/kg, po. To be noted: in vivo. It is filed as ADME, organism-based, Macaca fascicularis.
A short description of data set [15]: AUC in rat at 10 mg/kg, po. It is filed as ADME, organism-based. Particulars: in vivo.
Data set [16] is described as follows: Clearance in cynomolgus monkey at 3 mg/kg, iv and 10 mg/kg, po. It is filed as ADME, organism-based, Macaca fascicularis. To be noted: in vivo.
The next data set in a line: in vivo. To be noted: mouse, iv, 3 mg/kg.
The nature of data set [17]: Cmax in mouse at 10 mg/kg, po. It is filed as ADME, organism-based. Set-up: dose 10 mg/kg, route oral. Particulars: in vivo.
Data set [18] in a line: Clearance in dog at 3 mg/kg, iv and 10 mg/kg, po. Particulars: in vivo. It is filed as ADME, organism-based, Canis lupus familiaris.
A short description of data set [19]: Cmax in rat at 10 mg/kg, po. It is filed as ADME, organism-based. To be noted: in vivo. Set-up: dose 10 mg/kg, route oral.
The nature of data set [20]: Half life in mouse at 3 mg/kg, iv. It is filed as ADME, organism-based. Particulars: in vivo.
Data set [21] can be described thus: Volume of distribution at steady state in cynomolgus monkey at 3 mg/kg, iv and 10 mg/kg, po. It is filed as ADME, organism-based, Macaca fascicularis. Particulars: in vivo, read-out: Vdss.
Data set [22] can be described thus: Cmax in cynomolgus monkey at 10 mg/kg, po. It is filed as ADME, organism-based, Macaca fascicularis. Also noted: dose 10 mg/kg, route oral. Particulars: in vivo.
Data set [23] in a line: AUC in 17-beta estradiol pellets supplemented nu/nu mouse xenografted with tamoxifen-resistant human MCF7 cells at 30 mg/kg/day, po administered for 4 weeks measured on day 28. It is filed as ADME, organism-based. To be noted: in vivo.
Data set [24] in a line: Clearance in rat at 3 mg/kg, iv and 10 mg/kg, po. It is filed as ADME, organism-based. To be noted: in vivo.
A short description of data set [25]: Volume of distribution at steady state in mouse at 3 mg/kg, iv and 10 mg/kg, po. It is filed as ADME, organism-based. Particulars: in vivo, read-out: Vdss.
Data set [26] is described as follows: Half life in rat at 3 mg/kg, iv. It is filed as ADME, organism-based. To be noted: in vivo.
The nature of data set [27]: Oral bioavailability in dog at 10 mg/kg. To be noted: in vivo. It is filed as ADME, organism-based, Canis lupus familiaris.
The nature of data set [28]: Cmax in dog at 10 mg/kg, po. It is filed as ADME, organism-based, Canis lupus familiaris. Also noted: dose 10 mg/kg, route oral. Particulars: in vivo.
Data set [29] is described as follows: Volume of distribution at steady state in rat at 3 mg/kg, iv and 10 mg/kg, po. To be noted: in vivo, read-out: Vdss. It is filed as ADME, organism-based.
Data set [30] in a line: AUC in dog at 10 mg/kg, po. It is filed as ADME, organism-based, Canis lupus familiaris. To be noted: in vivo.
The nature of data set [31]: AUC in 17-beta estradiol pellets supplemented nu/nu mouse xenografted with tamoxifen-resistant human MCF7 cells at 200 mg/kg, sc administered 3 times per week for 4 weeks measured on day 28. It is filed as ADME, organism-based. To be noted: in vivo.

Regarding `CC/C(=C(\c1ccc(O)cc1)c1ccc(/C=C/C(=O)O)cc1)c1ccccc1`, in the data set with Mus musculus, the AUC (usually concentration integrated over time) amounted to 13 µg·h/mL.

`CC/C(=C(\c1ccccc1)c1ccc(/C=C/C(=O)O)cc1)c1ccccc1`: the AUC in data set [1] was found to be 137 µg·h/mL.

In the case of `O=C(Cc1ccccc1Nc1c(Cl)cccc1Cl)O[C@@H]1O[C@H](C(=O)O)[C@@H](O)[C@H](O)[C@H]1O`, the half-life (as a rule, the time needed for the level to fall by half in the phase considered) in data set [2] is 0.9 h.

As to `CC/C(=C(/c1ccc(/C=C/C(=O)O)cc1)c1cccc2[nH]ncc12)c1ccccc1`, the concentration at 24 h in [3] is 0.1 nM. In data set [4], the AUC worked out at 2.8 µg·h/mL.

Regarding `CC/C(=C(/c1ccc(/C=C/C(=O)O)cc1)c1ccc2[nH]c(=O)oc2c1)c1ccccc1`, in data set [3], the concentration at 24 h is 0.2 nM. For the same compound, in data set [4], the AUC was found to be 3 µg·h/mL.

`CC/C(=C(/c1ccc(/C=C/C(=O)O)cc1)c1ccc2[nH]ccc2c1)c1ccccc1` displayed an AUC in [4] of 9.4 µg·h/mL.

Compound `CC/C(=C(/c1ccc(/C=C/C(=O)O)cc1)c1ccc2[nH]nnc2c1)c1ccccc1` gave an AUC in data set [4] of 2.3 µg·h/mL.

`CC/C(=C(/c1ccc(/C=C/C(=O)O)cc1)c1ccc2[nH]ncc2c1)c1ccccc1`: in data set [3], the concentration at 24 h came out at 3.8 nM. For the same compound, the AUC in data set [1] turned out to be 240 µg·h/mL; in [4] it was 5.8 µg·h/mL.

`CC/C(=C(/c1ccc(/C=C/C(=O)O)cc1)c1ccc2[nH]ncc2c1)c1ccncc1C`: the concentration at 24 h in data set [3] worked out at 7.6 nM. The same compound registered an AUC in [4] of 0.081 µg·h/mL.

As for `CC/C(=C(/c1ccc(/C=C/C(=O)O)cc1)c1ccc2[nH]ncc2c1)c1ccncc1Cl`, in data set [3], the concentration at 24 h turned out to be 0.5 nM. Moreover, the AUC in data set [4] amounted to 0.11 µg·h/mL.

As to `CC/C(=C(/c1ccc(/C=C/C(=O)O)cc1)c1ccc2[nH]ncc2c1)c1cscc1C`, in data set [3], the concentration at 24 h is 10 nM. The compound further came in with an AUC in data set [4] of 3.8 µg·h/mL.

In the case of `CC/C(=C(/c1ccc(/C=C/C(=O)O)cc1)c1ccc2[nH]ncc2c1)c1ccccc1Cl`, in data set [3], the concentration at 24 h came to 3.7 nM. This compound also gave an AUC in [4] of 15 µg·h/mL.

With `CC/C(=C(/c1ccc(/C=C/C(=O)O)cc1)c1ccc2[nH]ncc2c1)c1cccc(Cl)c1`, the concentration at 24 h in [3] stood at 11 nM. Besides, the AUC in [4] stood at 11 µg·h/mL.

Regarding `CC/C(=C(/c1ccc(/C=C/C(=O)O)cc1)c1ccc2[nH]ncc2c1)c1ccccc1C#N`, the AUC in [4] is 0.2 µg·h/mL.

As for `CC/C(=C(/c1ccc(/C=C/C(=O)O)cc1)c1ccc2[nH]ncc2c1)c1ccccc1C`, the concentration at 24 h in data set [3] was determined as 1.7 nM. The compound also came in with an AUC in data set [4] of 7.2 µg·h/mL.

For `CC/C(=C(/c1ccc(/C=C/C(=O)O)cc1)c1ccc2[nH]ncc2c1)c1ccc(C#N)cc1C`, in data set [5], the concentration at 6 h was determined as 14 nM. In [4], this compound displayed an AUC of 4.3 µg·h/mL.

For `CC/C(=C(/c1ccc(/C=C/C(=O)O)cc1)c1ccc2[nH]ncc2c1)c1ccc(C#N)cc1Cl`, in data set [5], the concentration at 6 h was 10 nM. The compound further had an AUC in data set [4] of 2.9 µg·h/mL.

The compound `CC/C(=C(/c1ccc(/C=C/C(=O)O[C@@H]2O[C@H](C(=O)O)[C@@H](O)[C@H](O)[C@H]2O)cc1)c1ccc2[nH]ncc2c1)c1ccc(F)cc1Cl` gave a half-life in [2] of 8.1 h. Further, in data set [6], the Drug metabolism entry is “metabolite_detected”.

Turning to `COc1ccc(-c2sc3cc(O)ccc3c2Oc2ccc(OCCN3CCCCC3)cc2)cc1` [ARZOXIFENE], the AUC at 672 h in data set [7] is 50 µg·h/mL.

On to `CC/C(=C(/c1ccc(/C=C/C(=O)O)cc1)c1ccc2[nH]ncc2c1)c1ccc(F)cc1Cl` [BRILANESTRANT], for which the Drug metabolism entry in [8] was “metabolite_detected”. Moreover, the half-life in [9] was 11 h; in data set [12] it was 13 h; in [20], 4.2 h; in data set [26] it was 3.9 h. Further, the Vd in data set [10] was found to be 0.2 L/kg; in data set [21], 0.5 L/kg; in data set [25], 1.2 L/kg; in data set [29], 1.9 L/kg. For the same compound, the bioavailability – broadly, the share of a dose that reaches the circulation, judged against a reference dose that is usually intravenous – in [11] amounted to 49%; in data set [13] it was 42%; in data set [27] it was 61%. Moreover, the AUC in [14] was determined as 10 µg·h/mL; in data set [15], 5.8 µg·h/mL; in [4] it was 8.8 µg·h/mL; in data set [30], 69 µg·h/mL. The clearance in data set [16] turned out to be 0.42 L/h/kg; in “in vivo”, 0.66 L/h/kg; in data set [18], 0.096 L/h/kg; in data set [24], 0.84 L/h/kg. The Cmax (as a rule, the maximum level reached in the sampled fluid or tissue) in [17] is 4.4 µg/mL; in data set [19] it was 1.8 µg/mL; in data set [22], 6.1 µg/mL; in data set [28] it was 20 µg/mL. For the same compound, the concentration at 24 h in [3] was found to be 5.2 nM. Also, the AUC at 672 h in data set [23] turned out to be 21 µg·h/mL; in [7], 45 µg·h/mL.

On to `C[C@]12CC[C@@H]3c4ccc(O)cc4C[C@@H](CCCCCCCCC[S+]([O-])CCCC(F)(F)C(F)(F)F)[C@H]3[C@@H]1CC[C@@H]2O` (stereo partly specified) [FULVESTRANT], for which the AUC at 672 h in data set [31] stood at 11 µg·h/mL.

As for `Cc1c(-c2ccc(O)cc2)n(Cc2ccc(OCCN3CCCCC3)cc2)c2ccc(O)cc12` [PIPENDOXIFENE], the AUC at 672 h in data set [7] was 7 µg·h/mL.
